According to patent US6372693B1, “Substituted 2-(3-alkenyl-benzoyl)-cyclohexane-1,3-diones” (BASF Aktiengesellschaft, priority 1997, dated 2002):

How the values were obtained:
Test in all cases: greenhouse herbicidal test, post-emergence treatment
Assay type in all cases: in vivo
Chenopodium album = conditions: 0.5 or 0.25 kg/ha a.s., Chenopodium album (lambsquarters)
Experimental: (§1) The culture containers used were plastic flowerpots containing loamy sand with approximately 3.0% of humus as substrate. The seeds of the test plants were sown separately for each species.
(§2) For the purposes of post-emergence treatment, the test plants were grown to a plant height of from 3 to 15 cm, depending on the plant habit, and only then treated with the active ingredients which had been suspended or emulsified in water. To this end, the test plants were either sown directly and grown in the same containers, or they were first grown separately as seedlings and transplanted into the test containers a few days prior to treatment. The rate of application for the post-emergence treatment was 0.5 or 0.25 kg/ha a.s.
(§3) Depending on the species, the plants were kept at from 10-25° C. and 20-35° C., respectively. The test period extended over 2 to 4 weeks. During this time, the plants were tended, and their response to the individual treatments was evaluated.
(§4) Evaluation was carried out using a scale of from 0 to 100. 100 means no emergence of the plants, or complete destruction of at least the aerial parts, and 0 means no damage or normal course of growth.
(§5) The plants used in the greenhouse experiments belonged to the following species: […]

Polygonum persicaria = conditions: 0.5 or 0.25 kg/ha a.s., Polygonum persicaria (ladysthumb)
Experimental: as §1, §2, §3, §4, §5

Sinapis alba = conditions: 0.5 or 0.25 kg/ha a.s., Sinapis alba (white mustard)
Experimental: as §1, §2, §3, §4, §5

Solanum nigrum = conditions: 0.5 or 0.25 kg/ha a.s., Solanum nigrum (black nightshade)
Experimental: as §1, §2, §3, §4, §5

Measured: herbicidal action (control of the weed)

CC=Cc1c(Cl)ccc(C(=O)C2C(=O)CCCC2=O)c1Cl [Compound 2.1, 2-[2′,4′-Dichloro-3′-(prop-1″-en-1″-yl)benzoyl]-1,3-cyclo-hexanedione]
very good control: all assays above
